Assay results as given in patent US12577213B2 (NINGBO COMBIREG PHARMACEUTICAL TECHNOLOGY CO., LTD., priority 2020, dated 2026).
Read-outs that look alike come from different tables or passages of the source.

How the values were obtained:
[1] = tested on: 786-0 (renal cancer); test: NCI method SRB growth inhibition, 786-0; assay type: cell-based; conditions: Homo sapiens; 786-0, treated 48 hours, SRB stain
Method in brief: (§1)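 In vitro growth inhibition over 48 h, quantified by SRB protein staining (515 nm) against time-zero and vehicle controls; GI50 reported.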

[2] = tested on: OVCAR-3 (ovarian cancer); test: NCI method SRB growth inhibition, OVCAR-3; assay type: cell-based; conditions: Homo sapiens; OVCAR-3, treated 48 hours, SRB stain
Method in brief: as §1

[3] = tested on: A549 (non-small cell lung cancer); test: NCI method SRB growth inhibition, A549; assay type: cell-based; conditions: Homo sapiens; A549, treated 48 hours, SRB stain
Method in brief: as §1

[4] = tested on: HS 578T (breast cancer); test: NCI method SRB growth inhibition, HS 578T; assay type: cell-based; conditions: Homo sapiens, HS578T, treated 48 hours, SRB stain
Method in brief: as §1

[5] = Liver microsomes stability; assay type: in vitro ADME, human; conditions: for half-life at 1 μM: human, human liver microsomes
Method in brief: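 Compound at 1 μM final incubated with 1 mg/mL human liver microsomes and 1 mM NADPH (no-NADPH control), sampled at 0, 5, 15, 30, 60 min. Remaining parent quantified by LC-MS/MS; T1/2 = 0.693/k.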

[6] = tested on: LOX-IMVI (melanoma); test: NCI method SRB growth inhibition, LOX-IMVI; assay type: cell-based; conditions: Homo sapiens, treated 48 hours, SRB stain
Method in brief: as §1

[7] = tested on: PC-3 (prostate cancer); test: NCI method SRB growth inhibition, PC-3; assay type: cell-based; conditions: Homo sapiens; PC-3, treated 48 hours, SRB stain
Method in brief: as §1

[8] = tested on: SF295 (central nervous system tumor); test: NCI method SRB growth inhibition, SF295; assay type: cell-based; conditions: Homo sapiens, SF-295; SF295, treated 48 hours, SRB stain
Method in brief: as §1

[9] = tested on: HCT116 (colon cancer); test: NCI method SRB growth inhibition, HCT116; assay type: cell-based; conditions: Homo sapiens, HCT-116; HCT116, treated 48 hours, SRB stain
Method in brief: as §1

[10] = Metabolic stability in vivo (plasma half-life after IV); conditions: mouse, plasma, iv; intravenously at 1 mg/kg, male BALB/c nude mice; read-out: T½ of (IV in nude mice) (converted)
Protocol: The intravenous injection group of the embodiment compound was prepared with the mixed solvent of DMA:PEG400:30% SBECD=5:25:70 to form a 0.2 mg/mL of solution, and administered intravenously at 1 mg/kg of weight; and the oral preparation group was prepared with 0.5% MC to form a 1 mg/mL of solution, and administered by oral gavage at 10 mg/kg weight.
• Male BALB/c nude mice, 4-5 weeks old, purchased from Shanghai SLAC. 3. Experiment Method: 3.1 Instruments: • Liquid chromatography system: Shimadzu liquid chromatography system Shimadzu LC-30AD • MS/MS system: Applied Biosystems API5500 • Data collection: Analyst Software 1.5.2 3.2 Chromatographic Conditions Chromatographic Column • Analytical column: Kinetex 2.6u C18 100 A column (3.0 mm×30 mm) • Mobile phase: A: 10 mM NH4OAc (0.1% FA); B: Acetonitrile with 0.1% […] • Flow rate: 1.0 mL/min
Ion source was an electron spray ionization (ESI source) with negative ion detection; spray voltage source was 5500 V; ion source gas 1 (N2) was 50 psi; ion source gas 2 (N2) was 50 psi; air curtain gas (N2) was 30 psi. Scanning mode was multiple reaction monitoring (MRM); scanning time was 80 ms; collision gas pressure was 10 psi;
Grouping experiment, with three animals in each group, starting from now on, administration was started according to the weight of the animals. Blood was collected according to 5 min, 15 min, 30 min, 1 h, 2 h, 4 h, 8 h and 24 h after administration.
To 25.0 μL of plasma, 25.0 μL of internal standard solution (Tolbutamide (250 ng/mL) in acetonitrile), 25.0 μL of acetonitrile and 100 μL of acetonitrile were added, and the mixture was vortexed for 1 min, and centrifuged for 5 min (14000 rpm). 120 μL of the resulting supernatant was added with 80.0 μL of water (containing 1% formic acid) and mixed well, then analyzed by LC/MS/MS.

[11] = tested on: K562 (leukemia); test: NCI method SRB growth inhibition, K562; assay type: cell-based; conditions: Homo sapiens; K562, treated 48 hours, SRB stain
Method in brief: as §1

[12] = 1 μM compound, 1 mg/mL human liver microsomes, 1 mM NADPH
[13] = 1 μM compound, 1 mg/mL human liver microsomes, 1 mM NADPH, read-out: T½ of HLM
[14] = as repeated in Table 4, read-out: T½ of HLM (in vitro)

With `[2H]C([2H])([2H])Oc1cc(C(=O)Nc2cc3c(cc2Oc2cc(C)cc(C)c2)C(=O)N[C@@H](CC(=O)N(CC)CC)C(=O)N3)c(Cl)c(OC([2H])([2H])[2H])c1OC([2H])([2H])[2H]` [Compound 1, (S)-2-chloro-N-[3-[2-(diethylamino)-2-oxoethyl]-7-(3,5-dimethylphenoxy)-2,5-dioxo-2,3,4,5-tetrahydro-1H-benzo[e][1,4]diazepin-8-yl]-3,4,5-tris(trideuteromethoxy)benzamide] the GI50 [1] was 8.1 nM, the GI50 [2] was 5.5 nM and the GI50 [3] was 15 nM. For the same molecule, the GI50 [4] was 31.6 nM, the microsomal CLint at 1 μM [5, 12] was 16.5 µL/min/mg and the half-life at 1 μM [5, 13] was 0.7 h. The half-life at 1 μM [5, 14] was 0.7 h, the GI50 [6] was < 5 nM and the GI50 [7] was 5.5 nM. The GI50 [8] was 12.3 nM, the GI50 [9] was 5.4 nM and the half-life [10] was 0.885 h. For the same molecule, the GI50 [11] was < 5 nM.
In the case of `[2H]C([2H])([2H])Oc1cc(C(=O)Nc2cc3c(cc2Oc2cc(C)cc(C)c2)C(=O)N[C@@H](CC(=O)N(C([2H])([2H])C([2H])([2H])[2H])C([2H])([2H])C([2H])([2H])[2H])C(=O)N3)c(Cl)c(OC([2H])([2H])[2H])c1OC([2H])([2H])[2H]` [Compound 6, (S)-2-chloro-N-[3-[2-[bis(pentadeuteroethyl)amino]-2-oxoethyl]-7-(3,5-dimethylphenoxy)-2,5-dioxo-2,3,4,5-tetrahydro-1H-benzo[e][1,4]diazepin-8-yl]-3,4,5-tris(trideuteromethoxy)benzamide], the GI50 [1] is reported as 16.9 nM, the GI50 [2] is reported as 11.9 nM and the GI50 [3] is reported as 11.7 nM. For the same molecule, the GI50 [4] was 20.5 nM, the microsomal CLint at 1 μM [5, 12] was 9.5 µL/min/mg and the half-life at 1 μM [5, 13] was 1.22 h. The half-life at 1 μM [5, 14] was 1.22 h, the GI50 [6] was < 5 nM and the GI50 [7] was 10.3 nM. The GI50 [8] was 13.1 nM, the GI50 [9] was < 5 nM and the half-life [10] was 1.31 h. The GI50 [11] was < 5 nM.
